Where two headings read alike, the source gives them in different places. Numbered stars: 1 amine (or outer) side, 2 acyl side, 3 side chain; on linkers, the order of the positions; unused ones are H or OH. Bridge positions count the residues as written; N and C are the ends. Square brackets hold non-standard residues; d marks the D form. Side chains are listed from the residue outwards. Peptide text beside a SMILES is read from it. * marks the point of attachment. TtdsdLys(DOTA)NH2 = NC(=O)[C@@H](CCCCNC(=O)CN1CCN(CC(=O)O)CCN(CC(=O)O)CCN(CC(=O)O)CC1)NC(=O)CCC(=O)NCCCOCCOCCOCCCN*; Acetyl(1-DOTA-4-piperidyl) = O=C(O)CN1CCN(CC(=O)O)CCN(CC(=O)N2CCC(CC(=O)*)CC2)CCN(CC(=O)O)CC1; DOTA = O=C(O)CN1CCN(CC(=O)O)CCN(CC(=O)*)CCN(CC(=O)O)CC1; X10 = NC(=O)CN1CCN(CC(=O)O)CCN(CC(=O)*)CCN(CC(=O)O)CC1; Phe(4-Cl) = N[C@@H](Cc1ccc(Cl)cc1)C(=O)O; Arg(Me) = CNC(=N)NCCC[C@H](N)C(=O)O; Hyp = O=C(O)[C@@H]1C[C@@H](O)CN1; X1 = O=C(CC1CCN([*:1])CC1)[*:2]; Lys(Me) = CNCCCC[C@H](N)C(=O)O; Tle = CC(C)(C)[C@H](N)C(=O)O; 4Amb = NCc1ccc(C(=O)O)cc1; Nle = CCCC[C@H](N)C(=O)O; Dap = NC[C@H](N)C(=O)O; Aib = CC(C)(N)C(=O)O; CO = O=C([*:1])[*:2]; Guanidino = N=C(N)N*; NHBu = CCCCN*
Columns and labels:
[1] = target: T1, PSMA-expressing C4-2 cells (Homo sapiens, UniProt Q04609); assay: FACS binding assay (competition with 50 nM PSM-0183); details: C4-2 cells, read-out: pIC50 [C4-2] CAT (converted)
T1 construct: PSMA-expressing C4-2 cells (ATCC, Cat. No. CRL-3314) were cultured in RPMI-1640; host or cells: C4-2 cells
T1 sequence (Q04609 whole entry): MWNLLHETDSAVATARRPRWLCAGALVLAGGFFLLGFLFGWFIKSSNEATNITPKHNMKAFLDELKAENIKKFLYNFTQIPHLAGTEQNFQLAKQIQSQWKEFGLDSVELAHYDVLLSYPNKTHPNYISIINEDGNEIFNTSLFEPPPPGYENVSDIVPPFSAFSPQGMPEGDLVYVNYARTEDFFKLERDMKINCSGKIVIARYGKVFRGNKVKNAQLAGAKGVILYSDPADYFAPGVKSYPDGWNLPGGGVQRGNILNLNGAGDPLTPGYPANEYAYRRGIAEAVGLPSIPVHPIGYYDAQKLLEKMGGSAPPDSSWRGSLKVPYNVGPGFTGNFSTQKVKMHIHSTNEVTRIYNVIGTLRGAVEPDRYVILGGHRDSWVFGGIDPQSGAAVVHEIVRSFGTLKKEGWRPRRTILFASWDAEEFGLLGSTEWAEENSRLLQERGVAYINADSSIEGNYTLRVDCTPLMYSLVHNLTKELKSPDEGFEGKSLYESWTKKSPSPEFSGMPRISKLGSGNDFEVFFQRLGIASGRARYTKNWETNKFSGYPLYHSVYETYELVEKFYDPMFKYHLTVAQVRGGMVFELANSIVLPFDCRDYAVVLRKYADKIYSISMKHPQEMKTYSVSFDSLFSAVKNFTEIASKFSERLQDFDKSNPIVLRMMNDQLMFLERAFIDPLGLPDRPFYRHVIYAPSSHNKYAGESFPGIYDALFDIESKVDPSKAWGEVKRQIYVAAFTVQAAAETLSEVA
How it was run: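 Competition format: fluorescent tracer PSM-0183 (50 nM) displaced from PSMA on C4-2 cells by a test compound titration over 1 h at 4 °C. Bound tracer was quantified as flow-cytometric AF488 median fluorescence after washing. Four-parameter logistic fits of MFI data gave IC50 and pIC50.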

[2] = target: T2, Fc-fusion protein of human PSMA (hPSMA-Fc) (Homo sapiens, UniProt Q04609); assay: Surface plasmon resonance assay (Biacore T200, single cycle kinetic); assay type: binding; details: read-out: pKD CAT (converted)
T2 construct: purchased Acro Biosystems PSA-H5264
T2 sequence (Q04609 44-750 limits assumed): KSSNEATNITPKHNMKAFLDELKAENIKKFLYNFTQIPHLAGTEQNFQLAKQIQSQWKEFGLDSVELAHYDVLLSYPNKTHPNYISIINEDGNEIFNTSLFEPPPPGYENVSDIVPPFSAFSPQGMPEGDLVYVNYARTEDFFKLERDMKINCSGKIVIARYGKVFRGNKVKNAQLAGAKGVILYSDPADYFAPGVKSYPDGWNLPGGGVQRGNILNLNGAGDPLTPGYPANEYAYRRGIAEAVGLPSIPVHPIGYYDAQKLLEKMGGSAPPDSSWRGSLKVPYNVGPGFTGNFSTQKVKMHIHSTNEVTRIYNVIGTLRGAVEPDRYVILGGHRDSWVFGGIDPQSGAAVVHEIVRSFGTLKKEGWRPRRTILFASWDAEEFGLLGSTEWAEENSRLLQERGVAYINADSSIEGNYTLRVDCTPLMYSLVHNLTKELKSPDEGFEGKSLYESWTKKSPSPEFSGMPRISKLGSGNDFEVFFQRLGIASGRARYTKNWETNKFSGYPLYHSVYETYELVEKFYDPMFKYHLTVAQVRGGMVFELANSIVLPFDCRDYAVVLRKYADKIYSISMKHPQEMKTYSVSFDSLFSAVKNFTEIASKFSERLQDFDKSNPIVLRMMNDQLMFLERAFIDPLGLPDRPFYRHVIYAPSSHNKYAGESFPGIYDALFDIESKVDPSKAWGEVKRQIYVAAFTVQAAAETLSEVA
How it was run: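 KD, expressed as pKD, came from 1:1 Langmuir fits of reference- and buffer-blank-subtracted SPR data. The runs were single-cycle kinetics at 25° C in HBST/0.1% DMSO over human PSMA-Fc, captured to ~1000 RU on a peptide-coated CM5 surface and regenerated with 10 mM glycine pH 1.5.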

[3] = FACS binding, competition with 50 nM PSM-0183, category
[4] = SPR, hPSMA-Fc, single cycle kinetic, 25° C., category
[5] = pKD category for PSMA SPR activity assay, hPSMA-Fc, 25° C.

IC50 ([1]; pIC50 category of FACS binding) [nM]	Kd [2, 5] [nM]	SMILES	also measured
		CNCCCC[C@@H]1NC(=O)[C@@H](NC(=O)[C@H](Cc2ccc(Cl)cc2)NC(=O)C(C)(C)NC(=O)[C@@H](NC(=O)CC2CCN(C(=O)CN3CCN(CC(=O)O)CCN(CC(N)=O)CCN(CC(=O)O)CC3)CC2)[C@@H](C)O)CSSC[C@@H](C(=O)N[C@H](C(=O)N[C@H](C(N)=O)[C@@H](C)O)C(C)(C)C)NC(=O)[C@H](CC(N)=O)NC(=O)C(C)(C)NC(=O)[C@H](CCCNC(=N)NC)NC1=O [PSM-0601, LSC-Cmp-Thr-Aib-Pcf-[Cys-Lys(Me)-Arg(Me)-Aib-Aan-Cys]-Tle-Thr-NH] (X10-[X1]T[Aib][Phe(4-Cl)]C[Lys(Me)][Arg(Me)][Aib]NC[Tle]T-NH2; disulfide 5-10)	IC50 ([1]; FACS binding, category): < 200 nM; Kd ([2]; PSMA SPR assay, category): < 12.6 nM
		CC(=O)N[C@H](C(=O)NC(C)(C)C(=O)N[C@@H](Cc1ccccc1)C(=O)N[C@H]1CSSC[C@@H](C(=O)N[C@H](C(=O)N[C@H](C(=O)N[C@@H](CC(=O)O)C(N)=O)[C@@H](C)O)C(C)(C)C)NC(=O)[C@H](CC(N)=O)NC(=O)[C@@H]2C[C@@H](O)CN2C(=O)[C@H](CCCNC(=N)N)NC(=O)[C@H](CCCCN)NC1=O)[C@@H](C)O [PSM-0181, Ac-Thr-Aib-Phe-[Cys-Lys-Arg-Hyp-Asn-Cys]-Tle-Thr-Asp-NH2] (Ac-T[Aib]FCKR[Hyp]NC[Tle]TD-NH2; disulfide 4-9)	IC50 [1, 3]: < 200 nM; Kd [2, 4]: < 12.6 nM
200 to 1260	12.6 to 126	CCCC[C@H](NC(=O)[C@@H]1CSSC[C@H](NC(=O)[C@H](Cc2ccccc2)NC(=O)[C@H](C)NC(=O)[C@@H](NC(C)=O)[C@@H](C)O)C(=O)N[C@@H](CCCCN)C(=O)N[C@@H](CCCNC(=N)N)C(=O)N[C@@H](C)C(=O)N[C@@H](CC(N)=O)C(=O)N1)C(=O)N[C@H](C(=O)N[C@@H](CC(=O)O)C(=O)NCCCOCCOCCOCCCNC(=O)CCC(=O)N[C@H](CCCCNC(=O)CN1CCN(CC(=O)O)CCN(CC(=O)O)CCN(CC(=O)O)CC1)C(N)=O)[C@@H](C)O [PSM-0533, Ac-Thr-Ala-Phe-[Cys-Lys-Arg-Ala-Asn-Cys]-Nle-Thr-Asp-Ttds-lys(DOTA)-NH2] (Ac-TAFCKRANC[Nle]TD-{TtdsdLys(DOTA)NH2}; disulfide 4-9)	
< 200	< 12.6	CC(=O)N[C@H](C(=O)NC(C)(C)C(=O)N[C@@H](Cc1ccccc1)C(=O)N[C@H]1CSSC[C@@H](C(=O)N[C@H](C(=O)NCC(N)=O)C(C)(C)C)NC(=O)[C@H](CC(N)=O)NC(=O)C(C)(C)NC(=O)[C@H](CCCNC(=N)N)NC(=O)[C@H](CCCCN)NC1=O)[C@@H](C)O [PSM-0477, Ac-Thr-Aib-Phe-[Cys-Lys-Arg-Aib-Asn-Cys]-Tle-Gly-NH2] (Ac-T[Aib]FCKR[Aib]NC[Tle]G-NH2; disulfide 4-9)	
< 200	< 12.6	CCCCNC(=O)N[C@H](C(=O)NC(C)(C)C(=O)N[C@@H](Cc1ccc(Cl)cc1)C(=O)N[C@H]1CSSC[C@@H](C(=O)N[C@H](C(=O)N[C@H](C(=O)N[C@H](CCCCNC(=O)CC2CCN(C(=O)CN3CCN(CC(=O)O)CCN(CC(=O)O)CCN(CC(=O)O)CC3)CC2)C(N)=O)[C@@H](C)O)C(C)(C)C)NC(=O)[C@H](CC(N)=O)NC(=O)C(C)(C)NC(=O)[C@H](CCCNC(=N)N)NC(=O)[C@H](CCCCN)NC1=O)[C@@H](C)O [PSM-0452, nBuCAyl-Thr-Aib-Pcf-[Cys-Lys-Arg-Aib-Asn-Cys]-Tle-Thr-lys (DOTA-Cmp)-NH2] ({NHBu-CO}-T[Aib][Phe(4-Cl)]CKR[Aib]NC[Tle]T[dK](Acetyl(1-DOTA-4-piperidyl))-NH2; disulfide 4-9)	
< 200	< 12.6	C[C@@H](O)[C@H](NC(=O)[C@@H](NC(=O)[C@@H]1CSSC[C@H](NC(=O)[C@H](Cc2ccc(Cl)cc2)NC(=O)C(C)(C)NC(=O)[C@@H](NC(=O)CC2CCN(C(=O)CN3CCN(CC(=O)O)CCN(CC(=O)O)CCN(CC(=O)O)CC3)CC2)[C@@H](C)O)C(=O)N[C@@H](CCCCN)C(=O)N[C@@H](CNC(=O)NC(=N)N)C(=O)NC(C)(C)C(=O)N[C@@H](CC(N)=O)C(=O)N1)C(C)(C)C)C(N)=O [PSM-0546, DOTA-Cmp-Thr-Aib-Pcf-[Cys-Lys-Urr-Aib-Asn-Cys]-Tle-Thr-NH2] ({DOTA}-[X1]T[Aib][Phe(4-Cl)]CK[Dap]([CO-Guanidino])[Aib]NC[Tle]T-NH2; disulfide 5-10)	
		C[C@@H](O)[C@H](NC(=O)[C@@H](NC(=O)[C@@H]1CSSC[C@H](NC(=O)[C@H](Cc2ccccc2)NC(=O)C(C)(C)NC(=O)[C@@H](NC(=O)c2ccc(CNC(=O)CN3CCN(CC(=O)O)CCN(CC(=O)O)CCN(CC(=O)O)CC3)cc2)[C@@H](C)O)C(=O)N[C@@H](CCCCN)C(=O)N[C@@H](CCCNC(=N)N)C(=O)NC(C)(C)C(=O)N[C@@H](CC(N)=O)C(=O)N1)C(C)(C)C)C(N)=O [PSM-0202, DOTA-Pamb-Thr-Aib-Phe-[Cys-Lys-Arg-Aib-Asn-Cys]-Tle-Thr-NH2] ({DOTA-4Amb}-T[Aib]FCKR[Aib]NC[Tle]T-NH2; disulfide 4-9)	IC50 [1, 3]: < 200 nM; Kd [2, 4]: < 12.6 nM

Source: patent publication US20260083865A1, “PROSTATE SPECIFIC MEMBRANE ANTIGEN (PSMA) LIGANDS AND USE THEREOF” (priority 2022, published 2026)
